Results as given in US20090130118A1, “SCUTELLARIA BARBATA EXTRACT AND COMBINATIONS FOR THE TREATMENT OF CANCER” (BIONOVO, INC., priority 2007, published 2009).

Assays:
aromatase = target: T1, aromatase (Homo sapiens, UniProt P11511); settings: in vivo studies; cited from earlier work
T1 sequence (P11511 1-503): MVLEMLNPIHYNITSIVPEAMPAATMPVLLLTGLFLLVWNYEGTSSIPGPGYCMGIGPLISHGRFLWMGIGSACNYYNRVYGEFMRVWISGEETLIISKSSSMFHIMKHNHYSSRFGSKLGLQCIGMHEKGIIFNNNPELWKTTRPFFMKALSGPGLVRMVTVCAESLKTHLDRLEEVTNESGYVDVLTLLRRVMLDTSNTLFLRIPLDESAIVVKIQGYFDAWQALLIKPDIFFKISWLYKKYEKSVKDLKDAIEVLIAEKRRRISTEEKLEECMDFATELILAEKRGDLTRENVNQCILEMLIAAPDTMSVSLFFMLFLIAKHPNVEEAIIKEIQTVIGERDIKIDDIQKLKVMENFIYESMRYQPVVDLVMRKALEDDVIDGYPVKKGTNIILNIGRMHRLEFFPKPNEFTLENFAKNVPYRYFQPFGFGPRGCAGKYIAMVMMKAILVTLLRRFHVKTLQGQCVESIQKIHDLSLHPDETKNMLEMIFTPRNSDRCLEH

ETBR = target: T2, ETBR (Homo sapiens, UniProt P24530); settings: cited from earlier work
T2 sequence (P24530 27-442): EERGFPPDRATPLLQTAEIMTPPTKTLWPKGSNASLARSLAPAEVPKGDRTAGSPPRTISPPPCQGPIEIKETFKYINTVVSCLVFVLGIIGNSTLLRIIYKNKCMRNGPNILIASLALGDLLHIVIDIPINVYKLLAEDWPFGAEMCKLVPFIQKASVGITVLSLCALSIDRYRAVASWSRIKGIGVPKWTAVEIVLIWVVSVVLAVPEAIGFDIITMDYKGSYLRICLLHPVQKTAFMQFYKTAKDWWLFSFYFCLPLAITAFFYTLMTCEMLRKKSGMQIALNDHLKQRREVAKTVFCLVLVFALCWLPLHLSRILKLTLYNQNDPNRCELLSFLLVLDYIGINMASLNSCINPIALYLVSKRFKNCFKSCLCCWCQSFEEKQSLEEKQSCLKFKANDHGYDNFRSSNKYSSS

ETAR = target: T3, ETAR (Homo sapiens, UniProt P25101); settings: cited from earlier work
T3 sequence (P25101 21-427): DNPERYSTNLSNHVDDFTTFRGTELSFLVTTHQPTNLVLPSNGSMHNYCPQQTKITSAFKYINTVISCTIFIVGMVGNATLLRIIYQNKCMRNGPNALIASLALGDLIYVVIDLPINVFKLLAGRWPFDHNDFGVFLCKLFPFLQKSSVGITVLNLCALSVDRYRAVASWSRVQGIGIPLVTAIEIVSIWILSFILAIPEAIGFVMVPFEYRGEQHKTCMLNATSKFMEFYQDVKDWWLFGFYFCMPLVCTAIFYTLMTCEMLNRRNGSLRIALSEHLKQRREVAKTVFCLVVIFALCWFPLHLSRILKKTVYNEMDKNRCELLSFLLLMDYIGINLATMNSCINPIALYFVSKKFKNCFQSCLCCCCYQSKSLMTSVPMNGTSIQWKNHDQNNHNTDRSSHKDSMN

human tumor xenographs = settings: doses from 0.75 mg/kg/day to 1.5 mg/kg/day; cited from earlier work
GnHR receptor = target: T4, GnHR receptor (Homo sapiens, UniProt P30968); settings: in vivo studies; cited from earlier work
T4 sequence (P30968 1-328): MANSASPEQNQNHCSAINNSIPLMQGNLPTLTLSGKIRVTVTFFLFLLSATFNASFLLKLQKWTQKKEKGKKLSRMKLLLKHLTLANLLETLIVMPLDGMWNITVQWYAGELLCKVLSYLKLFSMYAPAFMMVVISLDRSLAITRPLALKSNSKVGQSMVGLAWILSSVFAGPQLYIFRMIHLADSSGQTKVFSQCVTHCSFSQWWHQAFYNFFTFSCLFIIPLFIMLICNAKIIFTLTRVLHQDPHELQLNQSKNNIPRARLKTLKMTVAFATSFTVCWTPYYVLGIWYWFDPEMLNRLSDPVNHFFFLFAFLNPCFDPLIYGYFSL

[1] = system: subcutaneous cancer xenografts; test: Mouse xenograft model, oral administration; assay type: in vivo; settings: BZL101 0.5 ml oral gavage every third day; cyclophosphamide 25 mg/Kg/day in drinking water; FIG. 6
Procedure: As in Example 1, above, 10^5 cells were administered to each animal subcutaneously on Day 0. The animals were divided into four groups. The control group received only normal drinking water. The cyclophosphamide only group received 25 mg/Kg/day of cyclophosphamide in their drinking water.

estrogen receptors = settings: compared with estrodiol; cited from earlier work
estrogen receptor = target: T5, estrogen receptor (Homo sapiens, UniProt P03372); settings: cited from earlier work
T5 sequence (P03372 1-595): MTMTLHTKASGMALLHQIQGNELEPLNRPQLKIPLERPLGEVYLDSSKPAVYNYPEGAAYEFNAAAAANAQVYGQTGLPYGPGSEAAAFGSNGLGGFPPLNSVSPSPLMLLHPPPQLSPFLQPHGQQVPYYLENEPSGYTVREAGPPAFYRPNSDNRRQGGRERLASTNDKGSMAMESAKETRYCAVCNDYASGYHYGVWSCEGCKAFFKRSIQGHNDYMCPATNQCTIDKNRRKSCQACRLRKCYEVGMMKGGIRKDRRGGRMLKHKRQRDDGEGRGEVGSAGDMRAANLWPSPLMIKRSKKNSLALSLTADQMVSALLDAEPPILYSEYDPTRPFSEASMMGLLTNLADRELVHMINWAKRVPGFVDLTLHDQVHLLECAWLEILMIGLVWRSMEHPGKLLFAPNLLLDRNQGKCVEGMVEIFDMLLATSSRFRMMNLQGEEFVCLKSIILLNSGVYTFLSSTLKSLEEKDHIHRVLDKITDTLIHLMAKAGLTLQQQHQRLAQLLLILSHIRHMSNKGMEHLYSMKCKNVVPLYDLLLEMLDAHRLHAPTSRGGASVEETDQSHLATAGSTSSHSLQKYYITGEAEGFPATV

**Q.** For `CC(C)(C#N)c1cc(Cn2cncn2)cc(C(C)(C)C#N)c1` [Anastrozole], which serum estradiol concentrations (aromatase) is on record?
**A.** Its serum estradiol concentrations is “significantly lowers serum estradiol concentrations”.

**Q.** Which “effect on ETBR” value (ETBR) does the source give for `COc1nc(C)cnc1NS(=O)(=O)c1cccnc1-c1ccc(-c2nnco2)cc1` [ZD4054] here?
**A.** Its value is “no detectable effect on ETBR”.

**Q.** And the “binding to ETAR” value (ETAR)?
**A.** The value was “only binds to ETAR”.

**Q.** For `COc1cc2c(Oc3ccc4[nH]c(C)cc4c3F)ncnc2cc1OCCCN1CCCC1` [AZD 2171], which tumor angiogenesis (human tumor xenographs) is on record?
**A.** The tumor angiogenesis was “inhibited tumor angiogenesis”.

**Q.** Which results are given for `CC(C)C[C@H](NC(=O)[C@@H](COC(C)(C)C)NC(=O)[C@H](Cc1ccc(O)cc1)NC(=O)[C@H](CO)NC(=O)[C@H](Cc1c[nH]c2ccccc12)NC(=O)[C@H](Cc1cnc[nH]1)NC(=O)[C@@H]1CCC(=O)N1)C(=O)N[C@@H](CCCNC(=N)N)C(=O)N1CCC[C@H]1C(=O)NNC(N)=O` [Goserelin]?
**A.** production of FSH and LH and sex hormones, initial effect (GnHR receptor): initial increase in production of FSH and LH; time after which the receptor is downregulated and LH or FSH levels fall (GnHR receptor): 14 to 21 days

**Q.** For `O=P1(N(CCCl)CCCl)NCCCO1` (stereo not drawn) [cyclophosphamide], which “tumor growth in xenograft” value [1] is on record?
**A.** The value was “inhibited tumor growth as compared to the control”.

**Q.** With `C[C@]12CC[C@@H]3c4ccc(O)cc4C[C@@H](CCCCCCCCC[S+]([O-])CCCC(F)(F)C(F)(F)F)[C@H]3[C@@H]1CC[C@@H]2O` (stereo partly drawn) [Fulvestrant] as the compound, how does the “affinity for estrogen receptors” value (estrogen receptors) read?
**A.** The value was “affinity that is similar to that of estrodiol”.

**Q.** And the “effect on estrogen receptor level” value (estrogen receptor)?
**A.** Its value is “downregulates and degrades the estrogen receptor”.
